Values after ≈ are worked out from the molar mass of the structure shown.
Experiments:
[1] = target: Sodium channel protein type 9 subunit alpha (Homo sapiens, UniProt Q15858); assay: Inhibition of Nav1.7 by cell based whole-cell voltage clamp electrophysiology assay
[2] = target: Sodium channel protein type 5 subunit alpha (Homo sapiens, UniProt Q14524); assay: Inhibition of Nav1.5 by cell based whole-cell voltage clamp electrophysiology assay
[3] = target: Voltage-gated inwardly rectifying potassium channel KCNH2 (Homo sapiens, UniProt Q12809); assay: Inhibition of human ERG
Voltage-gated inwardly rectifying potassium channel KCNH2, sequence (Q12809 whole entry): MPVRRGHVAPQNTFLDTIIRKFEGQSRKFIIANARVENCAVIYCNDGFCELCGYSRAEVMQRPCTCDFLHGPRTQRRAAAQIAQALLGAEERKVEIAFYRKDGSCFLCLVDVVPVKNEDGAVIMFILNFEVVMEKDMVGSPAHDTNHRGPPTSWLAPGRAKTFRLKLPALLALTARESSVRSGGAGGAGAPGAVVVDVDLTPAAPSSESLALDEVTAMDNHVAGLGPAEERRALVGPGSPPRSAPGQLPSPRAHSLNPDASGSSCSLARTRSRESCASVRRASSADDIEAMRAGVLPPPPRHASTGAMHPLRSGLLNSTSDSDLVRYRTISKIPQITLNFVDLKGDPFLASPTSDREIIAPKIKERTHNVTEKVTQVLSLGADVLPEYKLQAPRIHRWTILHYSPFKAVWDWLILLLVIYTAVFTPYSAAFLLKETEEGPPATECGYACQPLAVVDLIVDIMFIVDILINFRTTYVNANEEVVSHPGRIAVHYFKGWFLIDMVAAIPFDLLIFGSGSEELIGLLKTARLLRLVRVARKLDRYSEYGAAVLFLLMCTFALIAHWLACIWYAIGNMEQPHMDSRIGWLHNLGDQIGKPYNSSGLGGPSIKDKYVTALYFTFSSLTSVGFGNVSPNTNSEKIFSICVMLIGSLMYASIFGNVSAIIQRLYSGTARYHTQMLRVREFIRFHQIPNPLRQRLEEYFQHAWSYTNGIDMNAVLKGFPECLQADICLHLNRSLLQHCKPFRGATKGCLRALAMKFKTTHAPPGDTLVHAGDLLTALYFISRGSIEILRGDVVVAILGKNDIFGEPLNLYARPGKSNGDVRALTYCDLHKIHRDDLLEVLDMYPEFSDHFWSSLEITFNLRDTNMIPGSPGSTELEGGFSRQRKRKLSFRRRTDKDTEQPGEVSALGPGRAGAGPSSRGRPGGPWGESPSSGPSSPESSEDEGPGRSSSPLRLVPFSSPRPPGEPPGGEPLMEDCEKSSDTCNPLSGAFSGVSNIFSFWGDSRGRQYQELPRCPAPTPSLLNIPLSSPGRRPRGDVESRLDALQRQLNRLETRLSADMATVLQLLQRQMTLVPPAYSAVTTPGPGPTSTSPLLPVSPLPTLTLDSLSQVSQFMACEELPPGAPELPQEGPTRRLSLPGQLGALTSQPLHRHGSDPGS

[4] = Solubility of the compound; assay type: physicochemical
[5] = Intrinsic clearance in rat liver microsomes; assay type: ADME, Microsome
[6] = Intrinsic clearance in human liver microsomes; assay type: ADME, Microsome
Rattus norvegicus [7] = assay: Dose normalized AUC in Sprague-Dawley rat at 3 umol/kg, iv; assay type: ADME, organism-based; conditions: in vivo
[8] = Volume of distribution at steady state in Sprague-Dawley rat at 3 umol/kg, iv; assay type: ADME, organism-based; conditions: in vivo, read-out: Vdss
[9] = Terminal half life in Sprague-Dawley rat at 3 umol/kg, iv; assay type: ADME, organism-based; conditions: in vivo, read-out: beta t1/2 (converted)
[10] = Clearance in Sprague-Dawley rat at 3 umol/kg, iv; assay type: ADME, organism-based; conditions: in vivo
Rattus norvegicus [11] = assay: Dose normalized AUC in Sprague-Dawley rat at 10 umol/kg, po; assay type: ADME, organism-based; conditions: in vivo
[12] = Cmax in Sprague-Dawley rat at 10 umol/kg, po; assay type: ADME, organism-based; set-up: dose 10 umol/kg, route oral; conditions: in vivo
[13] = Tmax in Sprague-Dawley rat at 10 umol/kg, po; assay type: ADME, organism-based; conditions: in vivo
[14] = Half life in Sprague-Dawley rat at 10 umol/kg, po; assay type: ADME, organism-based; conditions: in vivo
[15] = Oral bioavailability in Sprague-Dawley rat at 10 umol/kg; assay type: ADME, organism-based; conditions: in vivo

Sodium channel protein type 5 subunit alpha, sequence (Q14524 whole entry): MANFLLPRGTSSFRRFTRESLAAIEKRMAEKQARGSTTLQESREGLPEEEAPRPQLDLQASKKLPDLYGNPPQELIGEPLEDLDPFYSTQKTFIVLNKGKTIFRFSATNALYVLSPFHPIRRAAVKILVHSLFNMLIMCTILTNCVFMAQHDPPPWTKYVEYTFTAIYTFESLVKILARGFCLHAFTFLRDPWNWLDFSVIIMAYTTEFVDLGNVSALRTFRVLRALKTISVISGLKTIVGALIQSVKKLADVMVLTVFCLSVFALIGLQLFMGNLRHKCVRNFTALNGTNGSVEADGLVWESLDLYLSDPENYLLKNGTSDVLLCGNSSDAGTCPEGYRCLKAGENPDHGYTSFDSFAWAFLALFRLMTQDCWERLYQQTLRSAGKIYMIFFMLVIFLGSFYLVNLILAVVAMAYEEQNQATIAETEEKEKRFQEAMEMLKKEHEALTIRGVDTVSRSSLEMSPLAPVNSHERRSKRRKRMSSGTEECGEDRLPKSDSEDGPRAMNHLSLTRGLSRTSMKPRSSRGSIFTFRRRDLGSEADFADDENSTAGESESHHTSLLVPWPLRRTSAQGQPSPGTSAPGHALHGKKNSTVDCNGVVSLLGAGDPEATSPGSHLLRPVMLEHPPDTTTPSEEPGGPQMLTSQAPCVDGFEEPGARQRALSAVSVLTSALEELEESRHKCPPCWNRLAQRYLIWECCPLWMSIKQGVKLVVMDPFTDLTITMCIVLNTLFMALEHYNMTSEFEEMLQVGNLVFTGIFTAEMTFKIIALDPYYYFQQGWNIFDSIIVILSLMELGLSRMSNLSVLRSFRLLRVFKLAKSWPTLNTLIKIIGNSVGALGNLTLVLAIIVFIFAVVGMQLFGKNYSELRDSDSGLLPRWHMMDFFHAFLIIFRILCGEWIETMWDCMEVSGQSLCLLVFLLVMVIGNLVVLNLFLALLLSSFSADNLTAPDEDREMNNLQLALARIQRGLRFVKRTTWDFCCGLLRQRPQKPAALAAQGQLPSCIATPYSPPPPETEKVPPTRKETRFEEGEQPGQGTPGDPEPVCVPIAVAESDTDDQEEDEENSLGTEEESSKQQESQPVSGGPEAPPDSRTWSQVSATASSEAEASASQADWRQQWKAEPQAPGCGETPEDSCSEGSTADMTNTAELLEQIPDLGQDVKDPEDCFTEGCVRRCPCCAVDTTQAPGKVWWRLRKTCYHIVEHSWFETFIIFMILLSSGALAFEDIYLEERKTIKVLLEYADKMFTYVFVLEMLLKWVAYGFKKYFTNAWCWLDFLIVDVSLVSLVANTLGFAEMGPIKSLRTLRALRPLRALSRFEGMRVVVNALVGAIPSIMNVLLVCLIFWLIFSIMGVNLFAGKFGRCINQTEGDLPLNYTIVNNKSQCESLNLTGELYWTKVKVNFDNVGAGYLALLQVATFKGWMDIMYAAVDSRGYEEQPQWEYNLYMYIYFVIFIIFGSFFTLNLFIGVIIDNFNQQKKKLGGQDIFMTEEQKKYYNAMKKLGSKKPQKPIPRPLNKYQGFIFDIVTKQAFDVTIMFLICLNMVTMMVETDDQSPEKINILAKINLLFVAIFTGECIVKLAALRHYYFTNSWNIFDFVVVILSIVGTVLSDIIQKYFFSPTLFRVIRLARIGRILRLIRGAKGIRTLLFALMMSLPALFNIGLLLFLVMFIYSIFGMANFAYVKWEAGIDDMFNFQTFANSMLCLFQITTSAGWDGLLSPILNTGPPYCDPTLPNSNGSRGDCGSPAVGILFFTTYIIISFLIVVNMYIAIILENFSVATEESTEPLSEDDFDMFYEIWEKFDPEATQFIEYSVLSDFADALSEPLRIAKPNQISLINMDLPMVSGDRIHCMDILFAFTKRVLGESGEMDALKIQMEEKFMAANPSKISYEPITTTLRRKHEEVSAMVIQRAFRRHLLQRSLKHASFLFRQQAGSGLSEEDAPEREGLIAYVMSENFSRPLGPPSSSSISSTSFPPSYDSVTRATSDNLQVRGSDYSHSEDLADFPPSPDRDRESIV
Sodium channel protein type 9 subunit alpha, sequence (Q15858 whole entry): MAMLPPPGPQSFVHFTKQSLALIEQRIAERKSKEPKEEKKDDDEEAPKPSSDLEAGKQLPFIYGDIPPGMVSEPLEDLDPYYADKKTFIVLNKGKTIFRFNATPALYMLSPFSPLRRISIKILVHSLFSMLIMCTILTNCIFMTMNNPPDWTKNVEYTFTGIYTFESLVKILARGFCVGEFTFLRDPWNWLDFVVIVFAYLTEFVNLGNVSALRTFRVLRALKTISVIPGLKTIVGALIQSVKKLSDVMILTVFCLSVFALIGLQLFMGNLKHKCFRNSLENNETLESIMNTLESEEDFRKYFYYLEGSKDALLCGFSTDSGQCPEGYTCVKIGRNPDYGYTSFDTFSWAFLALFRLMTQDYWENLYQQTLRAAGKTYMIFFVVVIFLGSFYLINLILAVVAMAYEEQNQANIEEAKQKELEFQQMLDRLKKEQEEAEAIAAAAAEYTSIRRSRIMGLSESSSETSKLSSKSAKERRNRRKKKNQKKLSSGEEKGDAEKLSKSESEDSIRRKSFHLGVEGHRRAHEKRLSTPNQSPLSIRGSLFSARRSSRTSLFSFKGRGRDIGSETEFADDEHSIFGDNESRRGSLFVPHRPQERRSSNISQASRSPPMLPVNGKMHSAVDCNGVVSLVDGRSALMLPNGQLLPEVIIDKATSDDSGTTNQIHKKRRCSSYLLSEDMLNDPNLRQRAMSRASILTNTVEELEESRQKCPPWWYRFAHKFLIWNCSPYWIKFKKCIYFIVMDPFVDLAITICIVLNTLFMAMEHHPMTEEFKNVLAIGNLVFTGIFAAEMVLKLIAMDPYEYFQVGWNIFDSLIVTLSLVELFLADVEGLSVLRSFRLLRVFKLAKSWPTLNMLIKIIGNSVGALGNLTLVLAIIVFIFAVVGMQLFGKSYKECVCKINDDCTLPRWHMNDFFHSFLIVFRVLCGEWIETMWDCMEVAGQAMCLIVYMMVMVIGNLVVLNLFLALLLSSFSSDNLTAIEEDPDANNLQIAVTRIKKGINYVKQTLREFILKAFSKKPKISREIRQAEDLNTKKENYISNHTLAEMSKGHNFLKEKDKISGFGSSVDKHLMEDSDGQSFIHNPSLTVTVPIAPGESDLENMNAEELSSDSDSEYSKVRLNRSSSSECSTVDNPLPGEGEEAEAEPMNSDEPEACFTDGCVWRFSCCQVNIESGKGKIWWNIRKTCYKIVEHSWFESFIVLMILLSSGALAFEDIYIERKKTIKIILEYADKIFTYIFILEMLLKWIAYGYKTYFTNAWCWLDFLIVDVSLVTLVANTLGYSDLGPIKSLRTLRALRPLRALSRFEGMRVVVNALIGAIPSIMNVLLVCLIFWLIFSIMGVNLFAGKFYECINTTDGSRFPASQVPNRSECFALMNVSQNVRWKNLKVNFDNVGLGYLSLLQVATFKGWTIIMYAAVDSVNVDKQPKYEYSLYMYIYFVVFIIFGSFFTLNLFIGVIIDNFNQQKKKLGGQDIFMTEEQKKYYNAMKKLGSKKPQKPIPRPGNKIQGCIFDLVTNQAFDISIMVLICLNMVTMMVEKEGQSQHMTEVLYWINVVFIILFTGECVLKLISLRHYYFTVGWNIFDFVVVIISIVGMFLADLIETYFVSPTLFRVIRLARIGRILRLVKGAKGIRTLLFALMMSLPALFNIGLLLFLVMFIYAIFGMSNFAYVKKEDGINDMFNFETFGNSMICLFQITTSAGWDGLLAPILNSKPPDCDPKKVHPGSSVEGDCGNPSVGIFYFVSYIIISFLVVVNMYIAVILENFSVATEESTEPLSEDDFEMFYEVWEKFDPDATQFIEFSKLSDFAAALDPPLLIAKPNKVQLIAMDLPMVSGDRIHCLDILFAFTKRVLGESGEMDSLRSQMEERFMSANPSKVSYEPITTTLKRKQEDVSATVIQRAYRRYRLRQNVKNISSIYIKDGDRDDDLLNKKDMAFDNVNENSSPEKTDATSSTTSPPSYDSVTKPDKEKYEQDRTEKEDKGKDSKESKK

Row | SMILES | IC50 [1] [nM] | IC50 [2] [nM] | further results
1 | Cc1onc(-c2ccccc2Cl)c1N(C)C(=O)NCc1ccc(OC2CCOCC2)nc1 | 3630 | > 33100 | 
2 | Cc1onc(-c2c(Cl)cncc2Cl)c1NC(=O)NCc1ccc(OC(C)C)nc1 | 12600 | > 33100 | 
3 | Cc1cccc(C)c1-c1noc(C)c1NC(=O)NCc1ccc(OC(C)C)nc1 | 209 | 20000 | 
4 | Cc1cccc(C)c1-c1noc(C)c1NC(=O)NCc1ccc(-n2cccn2)cc1 | 1170 | > 33100 | 
5 | Cc1onc(-c2c(Cl)cccc2Cl)c1NC(=O)NCc1ccc(-n2cccn2)cc1 | 263 | > 33100 | 
6 | Cc1onc(-c2c(Cl)cccc2Cl)c1CC(=O)NCc1ccc(-n2cccn2)cc1 | 851 | > 33100 | 
7 | O=C(Nc1conc1-c1c(Cl)cccc1Cl)OCc1c(F)cccc1Cl | 12600 |  | 
8 | Cc1cccc(C)c1-c1noc(C)c1N(C)C(=O)NCc1ccc(OC2CCOCC2)nc1 | 4470 | > 33100 | 
9 | Cc1onc(-c2c(Cl)cccc2Cl)c1N(C)C(=O)OCc1c(F)cccc1Cl | 302 | > 33100 | 
10 | Cc1cccc(C)c1-c1noc(C)c1CC(=O)NCc1ccc(OCC(F)(F)F)nc1 | 1230 | > 33100 | 
11 | COCc1onc(-c2c(Cl)cccc2Cl)c1NC(=O)OCc1ccccc1Cl | 331 | > 28200 | 
12 | Cc1onc(-c2c(Cl)cccc2Cl)c1N(C)C(=O)OCc1ccc(OC(C)C)nc1 | 224 | > 28800 | 

Compounds with a lower IC50 [1], results first:

Row | IC50 [1] [nM] | SMILES | IC50 [2] [nM] | further results
13 | 178 | Cc1onc(-c2c(Cl)cccc2Cl)c1CC(=O)NCc1ccc(OCC(F)(F)F)nc1 | > 33100 | IC50 [3]: > 26300 nM; solubility [4]: 36 µM (≈ 17.1 µg/mL); microsomal CLint [5]: 64 µL/min/mg; microsomal CLint [6]: 116 µL/min/mg; AUC/dose (Rattus norvegicus [7]): 0.46 kg·h/L; Vd [8]: 1.6 L/kg; half-life [9]: 36 min; clearance [10]: 36 mL/min/kg; AUC/dose (Rattus norvegicus [11]): 0.12 kg·h/L; Cmax [12]: 400 nM; Tmax [13]: 18 min; half-life [14]: 228 min; bioavailability [15]: 19%
14 | 170 | Cc1onc(-c2c(Cl)cccc2Cl)c1N(C)C(=O)NCc1ccc(OC2CCOCC2)nc1 | 5890 | 
15 | 162 | Cc1onc(-c2c(Cl)cccc2Cl)c1NC(=O)NCc1c(F)cccc1Cl | 8510 | 
16 | 151 | Cc1onc(-c2c(Cl)cccc2Cl)c1NC(=O)OCc1cccc(N(C)C)c1 | > 25700 | 
17 | 138 | Cc1onc(-c2c(Cl)cccc2Cl)c1NC(=O)OCc1cc(Cl)ccc1Cl | 2630 | 
18 | 126 | Cc1onc(-c2c(Cl)cccc2Cl)c1CC(=O)NCc1ccc(OC(C)C)nc1 | 4680 | 
19 | 72.4 | Cc1onc(-c2c(F)cccc2Cl)c1NC(=O)OCc1c(F)cccc1Cl | > 15800 | 
20 | 58.9 | Cc1cccc(C)c1-c1noc(C)c1CC(=O)NCc1cccc(OCCOCC(F)(F)F)n1 | 12000 | 
21 | 38 | Cc1cccc(C)c1-c1noc(C)c1NC(=O)NCc1c(F)cccc1Cl | > 10500 | 
22 | 28.8 | Cc1onc(-c2c(Cl)cccc2Cl)c1NC(=O)OCc1ccc(OC2CCCC2)nc1 | 1350 | 
23 | 28.2 | Cc1onc(-c2c(Cl)cccc2Cl)c1NC(=O)OCc1c(F)cccc1Cl | 5500 | IC50 [3]: > 26300 nM; solubility [4]: < 1 µM; AUC/dose (Rattus norvegicus [7]): 0.73 kg·h/L; Vd [8]: 3 L/kg; half-life [9]: 84 min; clearance [10]: 45 mL/min/kg; AUC/dose (Rattus norvegicus [11]): 0.001 kg·h/L; Cmax [12]: 7 nM; Tmax [13]: 19.8 min; bioavailability [15]: 0.3%
24 | 24 | Cc1onc(-c2c(Cl)cccc2Cl)c1NC(=O)OCc1ccccc1Cl | 8710 | 
25 | 22.9 | Cc1onc(-c2c(Cl)cccc2Cl)c1NC(=O)OCc1ccc(OC(C)C)nc1 | 8710 | 
26 | 10.5 | Cc1cccc(C)c1-c1noc(C)c1NC(=O)OCc1c(F)cccc1Cl | 7760 | 
27 | 9.33 | CCc1onc(-c2c(Cl)cccc2Cl)c1NC(=O)OCc1c(F)cccc1Cl | 7240 | 

— ChEMBL document CHEMBL1795246, “Phenyl isoxazole voltage-gated sodium channel blockers: structure and activity relationship” (Bioorg Med Chem Lett, 2011)
